Where two headings read alike, the source gives them in different places.
What was measured:
[1] = molecular target: T1, human SR-A on CHO-SRA cells (Homo sapiens, UniProt P21757); assay: Cell competition assay with 125I-imaging agent 2, CHO-SRA cells; conditions: competition for binding of 125I imaging agent 2, CHO-SRA cells, n=3; read-out: Mean IC50 (one site competition)
T1 construct: expressed in transfected cells; host or cells: CHO (hamster ovary) cells, line CHO-SRA
T1 sequence (P21757 1-451): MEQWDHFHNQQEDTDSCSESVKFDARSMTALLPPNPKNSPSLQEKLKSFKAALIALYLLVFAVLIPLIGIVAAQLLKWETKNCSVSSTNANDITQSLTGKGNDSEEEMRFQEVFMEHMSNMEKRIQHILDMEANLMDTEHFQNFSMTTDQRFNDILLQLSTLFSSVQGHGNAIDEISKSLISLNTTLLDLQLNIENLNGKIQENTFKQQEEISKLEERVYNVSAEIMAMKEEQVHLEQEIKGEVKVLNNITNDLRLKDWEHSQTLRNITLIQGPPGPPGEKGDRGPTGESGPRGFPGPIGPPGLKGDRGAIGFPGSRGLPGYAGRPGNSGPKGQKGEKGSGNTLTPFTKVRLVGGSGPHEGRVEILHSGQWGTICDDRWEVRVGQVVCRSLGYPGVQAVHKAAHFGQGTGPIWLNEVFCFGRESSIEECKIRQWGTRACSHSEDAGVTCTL
Procedure: (§1) Experiments were carried out in THP-1 and CHO-SRA cells to assess competition for binding of ^125I imaging agent 2 by acLDL, oxLDL and non-radioactive imaging agent 2.
CHO-SRA cells are adherent hamster ovary cells expressing human SR-A and were cultured in Hams F-12 medium containing penicillin/streptomycin, 2 mM glutamine, HEPES buffer (7 ml per 500 ml media), 3% filter-sterilised lipoprotein-deficient serum (LPDS; Sigma cat. no. S5394), 40 μM compactin/mevastatin (Sigma cat. no. M2537), 250 μM mevalonic acid lactone (Sigma cat. no. M4667), and 3 μg/ml acetylated LDL (AcLDL; Biogenesis, Cat no. 5685-3404). For assays with ^125I-acLDL, cells were seeded at 1×10^5 cells/well/ml in 24 well plates 24 hours prior to assay. For assays with ^125I imaging agent 2, CHO-SRA cells were seeded at 1.5×10^5 cells/well/ml in 24 well plates 24 hours prior to assay.

MSRA on THP-1 cells = molecular target: T2, MSRA on THP-1 cells (Homo sapiens, UniProt P21757); assay: Cell competition assay with 125I-imaging agent 2, THP-1 cells; conditions: competition for binding of 125I imaging agent 2, THP-1 cells, n=3
T2 construct: Cells became adherent and expressed MSRA; endogenous in cells; host or cells: THP-1 (ECACC), differentiated with PMA
T2 sequence (P21757 1-451): T1 sequence (P21757 1-451)
Procedure: Experiments were carried out on THP-1 cells. THP-1 cells (human monocyte ECACC) are suspension cells and were cultured in RPMI-1640 medium (Sigma, Cat no. R0883) containing penicillin/streptomycin (Sigma, Cat no. P4458), 2 mM glutamine (Sigma, Cat no. G7513) and 10% foetal bovine serum (FBS; Sigma, Cat no. F-7524). Cells were routinely passaged at 2×10^5 cells/ml in 162 cm^2 flasks. For assays with ^125I-acLDL, cells were seeded at 1×10^5 cells/well/ml in 24 well plates 4-6 days prior to assay and 400 ng/ml phorbol myristate acetate (PMA) added to differentiate THP-1 cells. Cells became adherent and expressed MSRA. For assays with ^125I imaging agent 2, THP-1 cells were seeded at 1.5×10^5 cells/well/ml in 24 well plates 4-6 days prior to assay with 400 ng/ml PMA.
as §1
THP-1 cells were cultured as described in Example 13 above.

IC50 [1]: 30 ± 12 µM
IC50 (MSRA on THP-1 cells; read-out: Mean IC50 (two site kinetics, first value)): 0.079 ± 0.02 µM
IC50 (MSRA on THP-1 cells; read-out: Mean IC50 (two site kinetics, second value)): 14.5 ± 5.8 µM
SMILES: O=C(Nc1ccc(I)cc1)c1cc(Br)ccc1NS(=O)(=O)c1ccc(Cl)cc1 [non-radioactive imaging agent 2]

Source: patent US20060239915A1, “Labeled macrophage scavenger receptor antagonists for imaging cardiovascular diseases” (priority 2002, published 2006)
